Source: article PMC10778626, “Efficacy of Novel Quaternary Ammonium and Phosphonium Salts Differing in Cation Type and Alkyl Chain Length against Antibiotic-Resistant Staphylococcus aureus” (International Journal of Molecular Sciences, 2023)

How the values were obtained:
[1] = Chromatographic hydrophobicity index (CHI) by UHPLC; assay type: physicochemical; conditions: for CHI: LC/UV at pH 2.6, calculated from retention time with the calibration line; for chromatographic logP: back-calculated from CHI at pH 2.6: CHI LogP = 0.047 × CHI + 0.36 × HBC − 1.10
Protocol: The chromatographic hydrophobicity index (CHI) values were determined using the retention times (tR) of the samples under study and of a mixture of standard compounds on a UHPLC NEXERA SERIES LC-40 with a Luna C18 (2) column of 150 × 4.6 mm, 5 μm (Phenomenex, Torrance, CA, USA). Stock solutions of the test compounds (10 mM) were prepared in dimethyl sulfoxide (DMSO, 99.9%; Carlo Erba) and diluted in acetonitrile/water (1:1) to obtain a final concentration of 500 μM. The mobile phase A was 1.0% (v/v) aqueous acetic acid solution (pH = 2.6), and the mobile phase B was acetonitrile. The following gradient programme was applied: 1–7 min 0–100% B, 7–17 min 100% B, 17–19 min 100–0% B, 1 mL/min flow; rt, injection volume 40 μL.
A calibration line was obtained using a mixture of the following compounds: benzimidazole, theophylline, paracetamol, caffeine, colchicine, carbamazepine, indole, propiophenone, butyrophenone, valerophenone, and heptanophenone (Table S1 and Figure S50, Supplementary Materials). The experimental CHI values of the compounds tested at pH 2.6 were then converted to the logarithm of octanol/water partition coefficient (CHI LogP) values using Equation (1). CHI LogP = 0.047 × CHI + 0.36 × HBC − 1.10 (1) where HBC is the hydrogen bond donor count.

[2] = test system: S. aureus CECT 976; assay: Quantitative suspension test, dose-response against planktonic bacteria; assay type: cell-based, Staphylococcus aureus; conditions: 30 min exposure; for concentration inducing reductions in S. aureus log CFU/mL > 5 / MBC: S. aureus CECT 976; for MBC: Staphylococcus aureus, CECT976, 0.5 h, 37 °C, distilled water
Protocol: A quantitative suspension test to explore the dose–response relationships of QHSs by evaluating bactericidal activity was performed. For this method, overnight grown cultures were centrifuged (VWR Mega Star 600R) at 3772× g for 10 min and washed twice with phosphate-buffered saline (PBS; 1.44 g/L of […]—Labkem, Barcelona, Spain; 8 g/L of sodium chloride, 0.2 g/L of potassium chloride, and 0.24 g/L of potassium dihydrogen phosphate—VWR, Leuven, Belgium) at pH 7.4. The collected cells were resuspended in PBS and adjusted to an optical density (OD) of 0.132 ± 0.02 (λ = 600 nm). Afterwards, 100 µL of this cell suspension was aseptically transferred to 800 µL of DW and allowed to stand for 2 min. To this mixture, 100 µL of each QHS solution diluted in DMSO at the desired concentration was added. The dose–response evaluation took place for 30 min at 37 °C. In the case of the negative control (untreated cells), the QHS solution was replaced by an equal volume of DMSO or DW. At the end of the contact time, QHS neutralization was performed through the dilution-neutralization method using a universal neutralizer (1 g/L L-histidine (Merck—Tokyo, Japan), 3 g/L lecithin (Alfa Aesar—Karlsruhe, Germany), 5 g/L sodium thiosulphate (Labkem—Barcelona, Spain), 30 g/L saponin (VWR Chemicals—Leuven, Belgium), and 30 g/L polysorbate 80 (VWR Chemicals—Le Havre, France) in 0.0025 M phosphate buffer). For neutralization, the test blend (100 µL) was added to 800 µL sterile aqueous neutralizing solution and 100 µL of DW. The mixture was gently agitated and allowed to stand for 10 min, after which serial dilutions (up to 10^−5) in sterile saline solution (0.85% w/v NaCl) were prepared. Then, 10 µL of each serial dilution was plated into Petri dishes containing PCA by the drop-plating method. The plates were allowed to set, then inverted and placed in an incubator at 37 °C for 24 h. The surviving cells on the QHS neutralized samples were determined by CFU counting on each plate, ensuring the counting of dilution plates that gave between 10 and 100 CFUs. The antibacterial activity was evaluated by quantification of logarithmic reduction (log CFU/mL), according to Equation (2). log CFU/mL reduction = log (X) − log (X0), (2) where X0 and X are the counts of CFU/mL before (untreated control cells) and after quaternary salt exposure, respectively.
The QHS concentrations chosen for conducting the dose–response tests comprise of the MBC, which causes the complete reduction of planktonic cells, as well as lower concentrations. Specifically, compound 1e was evaluated at concentrations of 0.25, 0.5, 0.75, 1, 2, 4, 8, and 16 µg/mL, compound 7e at concentrations of 1, 2, 3.2, 3.5, 4, 8, and 16 µg/mL, compound 5e at concentrations of 0.5, 1, 1.3, 1.6, 2, 4, and 8 µg/mL, and compound 3e at concentrations of 0.5, 0.75, 1, 1.3, 1.6, 2, 4, and 8 µg/mL. In the case of compounds 2e, 6e, and 4e, concentrations tested were 0.5, 1, 1.6, 2, 4, and 8 µg/mL. All tests were performed in duplicate, and with a minimum of three independent repeats.
The Chick–Watson mathematical model, provided in Equation (3), is considered an adequate approach to validate the kinetics of dose–response data. log X/X0 = − Kdis C^n t (3) where X0 and X are the counts of CFU/mL before and after quaternary salt exposure, respectively; Kdis is a killing rate coefficient ((mL.µg^−1)^n.min^−1); C is the quaternary salt concentration (µg.mL^−1); n is the concentration exponent and t is the exposure time (min). The concentration dependence of killing (n) was determined using a toolbox for linear regression in GraphPad Prism (version 8.4.0, GraphPad Software, La Jolla, CA, USA). The quality of the model was evaluated through the regression coefficient (R^2).

Compound	CHI [1]	chromatographic logP [1]	concentration inducing reductions in S. aureus log CFU/mL > 5 [2] [μg/mL]	MBC [2] [µg/mL]	maximum log CFU/mL reduction ([2]; at 1.3 μg/mL) [log CFU/mL]	maximum log CFU/mL reduction ([2]; at 4 μg/mL) [log CFU/mL]
CCCCCCCCCCCCCC[n+]1ccc2ccccc2c1.[Br-] [Compound 3e, 2-Tetradecylisoquinolin-2-ium bromide]	87.98	3.04	1.2	1.3	6.0	–
CCCCCCCCCCCCCC[n+]1ccc(C)cc1.[Br-] [Compound 4e, 4-Methyl-1-tetradecylpyridin-1-ium bromide]	82.90	2.8	3.5	–	–	5.9
CCCCCCCCCCCCCC[n+]1ccccc1.[Br-] [Compound 6e, 1-Tetradecylpyridin-1-ium bromide]	79.90	2.65	3.2	–	–	5.9
CCCCCCCCCCCCCC[n+]1ccn(C)c1.[Br-] [Compound 2e, 1-Methyl-3-tetradecyl-1H-imidazol-3-ium bromide]	81.36	2.72	2.8	–	–	–
CCCCCCCCCCCCCC[P+](c1ccccc1)(c1ccccc1)c1ccccc1 [Compound 1e, Triphenyl(tetradecyl)phosphonium bromide]	105.0	3.84	0.7	1	–	–
CCCCCCCCCCCCCC[n+]1cccc2ccccc21.[Br-] [Compound 5e, 1-Tetradecylquinolin-1-ium bromide]	88.00	3.04	1.2	1.3	6.0	–
